For the experiment, the target named is T1, BMX (Homo sapiens, UniProt P51813).
T1 sequence (P51813 1-675): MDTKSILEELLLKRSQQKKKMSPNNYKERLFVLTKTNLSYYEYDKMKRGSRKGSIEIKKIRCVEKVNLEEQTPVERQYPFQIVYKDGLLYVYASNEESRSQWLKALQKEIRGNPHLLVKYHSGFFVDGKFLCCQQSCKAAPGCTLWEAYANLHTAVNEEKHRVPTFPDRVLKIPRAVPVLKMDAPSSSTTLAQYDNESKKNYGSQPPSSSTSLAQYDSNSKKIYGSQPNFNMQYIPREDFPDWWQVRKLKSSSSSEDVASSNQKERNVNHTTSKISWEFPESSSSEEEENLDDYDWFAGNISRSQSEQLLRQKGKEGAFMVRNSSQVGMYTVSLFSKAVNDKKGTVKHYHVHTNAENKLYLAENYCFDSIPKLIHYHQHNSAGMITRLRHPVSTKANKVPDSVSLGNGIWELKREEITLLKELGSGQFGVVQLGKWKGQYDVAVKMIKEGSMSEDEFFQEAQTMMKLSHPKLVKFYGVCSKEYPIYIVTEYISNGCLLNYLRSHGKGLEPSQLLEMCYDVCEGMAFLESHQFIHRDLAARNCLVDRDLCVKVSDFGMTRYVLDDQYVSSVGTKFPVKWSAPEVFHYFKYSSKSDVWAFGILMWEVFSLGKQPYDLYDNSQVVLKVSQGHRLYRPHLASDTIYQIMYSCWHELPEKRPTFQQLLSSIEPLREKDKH
Put plainly: HTS ATP-utilizing enzyme assay, off-chip mobility-shift (Caliper HTS 250). It is filed as biochemical. The following applies: test compound 10 μM, kinase listed = active (greater than six-sigma from the mean activity of inactive compounds). A digest of the protocol: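 Test compound at 10 μM final was incubated with kinase and peptide substrate in HEPES pH 7.5 buffer with Triton X-100 and BSA for 2.5 hrs at 20° C. to 22° C., then stopped with EDTA. Inhibition came from the substrate-to-phosphorylated-product ratio on a microfluidic mobility-shift read. EDTA wells served as 100% control.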

As for `COc1ccc(-c2ccc3nccc(N(C)c4ccc(N5CCN(C)CC5)cc4)c3c2)cc1` [6-(4-methoxyphenyl)-N-methyl-N-(4-(4-methylpiperazin-1-yl)phenyl)quinolin-4-amine], the Activity result is “BMX”.
Regarding `CN1CCN(c2ccc(Nc3ccnc4ccc(-c5cccc6ccccc56)cc34)cc2)CC1` [N-(4-(4-methylpiperazin-1-yl)phenyl)-6-(naphthalen-1-yl)quinolin-4-amine], the Activity entry was “BMX”.
For the compound `CN1CCN(c2ccc(Nc3ccnc4ccc(-c5ccc6ccccc6c5)cc34)cc2)CC1` [N-(4-(4-methylpiperazin-1-yl)phenyl)-6-(naphthalen-2-yl)quinolin-4-amine], the Activity result is given as “BMX”.
With `Cc1ccccc1-c1ccc2nccc(Nc3ccc(N4CCN(C)CC4)cc3)c2c1` [N-(4-(4-methylpiperazin-1-yl)phenyl)-6-o-tolylquinolin-4-amine] the entry was “BMX”.

For the origin of these results see patent US7452887B2, “Quinoline- and isoquinoline-based compounds exhibiting ATP-utilizing enzyme inhibitory activity, and compositions, and uses thereof” (Amphora Discovery Corporation, priority 2004, dated 2008).
